This is an account of results in publication PMC7182704 (Computational and Structural Biotechnology Journal, 2020).

The target in data set [1] is T1, LinB (Sphingobium indicum, UniProt D4Z2G1).
T1 sequence (D4Z2G1 1-296): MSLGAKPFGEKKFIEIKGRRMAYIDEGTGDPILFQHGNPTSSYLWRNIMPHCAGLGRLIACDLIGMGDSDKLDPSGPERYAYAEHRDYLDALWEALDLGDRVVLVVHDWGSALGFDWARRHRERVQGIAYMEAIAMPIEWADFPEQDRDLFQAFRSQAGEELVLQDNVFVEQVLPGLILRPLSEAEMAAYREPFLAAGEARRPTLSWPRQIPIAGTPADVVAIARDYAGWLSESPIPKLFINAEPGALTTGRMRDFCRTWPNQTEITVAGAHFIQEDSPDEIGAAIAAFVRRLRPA
The note with it: 37 °C, pH 8.6; cited from earlier work.

A further data set addresses T2, DmmA (Lyngbya majuscula, UniProt Q6DND9).
T2 sequence (Q6DND9 25-341): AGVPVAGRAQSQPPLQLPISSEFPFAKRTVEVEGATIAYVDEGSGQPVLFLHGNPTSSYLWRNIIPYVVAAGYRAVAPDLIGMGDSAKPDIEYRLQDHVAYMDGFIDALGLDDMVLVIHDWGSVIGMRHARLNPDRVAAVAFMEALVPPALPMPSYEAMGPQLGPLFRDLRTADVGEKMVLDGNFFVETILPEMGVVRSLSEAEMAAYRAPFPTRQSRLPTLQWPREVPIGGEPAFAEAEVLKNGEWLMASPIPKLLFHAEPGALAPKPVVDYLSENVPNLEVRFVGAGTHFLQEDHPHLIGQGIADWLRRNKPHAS
The note with it: 37 °C, pH 8.6; cited from earlier work.

Data set [2] deals with T1, LinB. The note with it: pH 8.6, 37 °C, cited from earlier work.
Data set [3] can be described thus: Photophysical properties of fluorescent substrates. In kind it is physicochemical.
Data set [4] in a line: Stability of COU–Br and BDP–Cl in the dark and under irradiation. It counts as physicochemical. The note with it: 10 µM, pH 8.0, 30 °C.
In a further data set the test system is DhaA. The note with it: pH 9.4, 30 °C; cited from earlier work.
A further data set has as its system DhlA. The note with it: pH 8.2, 30 °C; cited from earlier work.
Substrate in data set [5]: COc1cc2oc(=O)cc(CBr)c2cc1OC
The experiment in a line: Steady-state kinetics, fluorescence progress curves fitted globally. It counts as biochemical, marine microbial consortium. The note with it: other: DmmA, 30 °C, pH 8.0.

Setting [6] is: PBS buffer/DMSO (90:10, v/v), pH 8.0, c ≈ 10^−6 M.

By Km is commonly meant the substrate concentration at which the rate is half of its maximum. In general, kcat refers to the maximal rate divided by the concentration of active sites. Turning to `CCCCCl` [CB, 1-chlorobutane], at LinB [1], the Michaelis constant (Km) is 240 ± 20 µM and the kcat is 1.00 ± 0.03 s⁻¹. In addition, at DmmA, the Michaelis constant (Km) is 400 ± 100 µM and the kcat was 0.17 ± 0.02 s⁻¹.
On to `CCCCCCCl` [CH, 1-chlorohexane], for which the k3 on LinB [2] (three-step model) was 3.2 ± 0.2 s⁻¹. The k2 on LinB [2] was 117 ± 5 s⁻¹.
As to `COc1cc2oc(=O)cc(CBr)c2cc1OC` [COU–Br, 4-(bromomethyl)-6,7-dimethoxycoumarin], the “increase in quantum yield upon covalent binding to HLDs” value in data set [3] was 6 fold. In data set [3] (setting [6]), the “Φfl (quantum yield of fluorescence)” value was found to be 15.2 ± 1.2% and the “λmax (absorption maximum)” value is reported as 354 nm. The “ε (molar absorption coefficient)” value in data set [3] (neat DMSO, three independent measurements) is listed as 11,500 M^−1cm^−1. Also, in data set [4] (PBS buffer/DMSO (90:10), xenon lamp 100 W, 10 min), the stability under irradiation result is recorded as “slowly degraded under irradiation”. In addition, the “stability in the dark” value in data set [4] (PBS buffer/DMSO (90:10, v/v)) is “stable in the dark”.
Consider `BrCCBr` [DBE, 1,2-dibromoethane], for which, on LinB [1], the Km was 1700 ± 200 µM and the kcat was 12 ± 4 s⁻¹. Also, on DmmA, the Km was 2300 ± 300 µM and the kcat is 1.8 ± 0.4 s⁻¹.
`BrCCCBr` [DBP, 1,3-dibromopropane]: in the data set on DhaA, the k1 is 800000 to 2.5e+06 M⁻¹ s⁻¹, the k2 was 249 to 272 s⁻¹, the k3 is 13.5 to 16.3 s⁻¹ and the k4 is 3.4 to 4.6 s⁻¹. Further, in the data set with DhaA, the “k−1” value was 60 to 300 s⁻¹.
Turning to `ClCCCl` [DCE, 1,2-dichloroethane], in the data set with DhlA, the k1 was 9 ± 1 × 10^-3 μM^−1s^−1, the k2 was 50 ± 10 s⁻¹, the k3 was 14 ± 3 s⁻¹ and the k4 is 8 ± 2 s⁻¹. Further, the “k−1” value in the data set with DhlA was 20 ± 5 s⁻¹.

B1: DmmA (Lyngbya majuscula) (protein)
chain: AGVPVAGRAQSQPPLQLPISSEFPFAKRTVEVEGATIAYVDEGSGQPVLFLHGNPTSSYLWRNIIPYVVAAGYRAVAPDLIGMGDSAKPDIEYRLQDHVAYMDGFIDALGLDDMVLVIHDWGSVIGMRHARLNPDRVAAVAFMEALVPPALPMPSYEAMGPQLGPLFRDLRTADVGEKMVLDGNFFVETILPEMGVVRSLSEAEMAAYRAPFPTRQSRLPTLQWPREVPIGGEPAFAEAEVLKNGEWLMASPIPKLLFHAEPGALAPKPVVDYLSENVPNLEVRFVGAGTHFLQEDHPHLIGQGIADWLRRNKPHAS
One may read the kcat/Km as the second-order rate constant that governs catalysis at low substrate concentration. For the molecule B1, in data set [5], the Km worked out at 0.9 ± 0.6 µM, the kcat was found to be 1.9 ± 0.1 s⁻¹ and the kcat/Km came to 2.1e+06 M⁻¹ s⁻¹.
